Results published in ChEMBL document CHEMBL1136837, “Unified QSAR approach to antimicrobials. 4. Multi-target QSAR modeling and comparative multi-distance study of the giant components of antiviral drug-drug complex networks” (Bioorg Med Chem, 2009).

Assays:
Hepatitis B virus = assay: Antiviral activity against Hepatitis B virus; assay type: functional, organism-based
Human alphaherpesvirus 3 = assay: Antiviral activity against Varicella zoster virus; assay type: functional, organism-based
Human papillomavirus = assay: Antiviral activity against Human papillomavirus; assay type: functional, organism-based
Hepatitis C virus = assay: Antiviral activity against Hepatitis C virus; assay type: functional, organism-based, Hepacivirus hominis; details: Hepatitis C virus
Vaccinia virus = assay: Antiviral activity against Vaccinia virus; assay type: functional, organism-based, Orthopoxvirus vaccinia; details: Orthopoxvirus vaccinia
Human alphaherpesvirus 2 = assay: Antiviral activity against Herpes simplex virus 2; assay type: functional, organism-based
Human alphaherpesvirus 1 = assay: Antiviral activity against Herpes simplex virus 1; assay type: functional, organism-based
Human betaherpesvirus 5 = assay: Antiviral activity against Human cytomegalovirus; assay type: functional, organism-based; details: Human betaherpesvirus 5
[1] = tested on: Human immunodeficiency virus 1; assay: Antiviral activity against HIV1; assay type: functional, organism-based
[2] = tested on: Human immunodeficiency virus 2; assay: Antiviral activity against HIV2; assay type: functional, organism-based
Cowpox virus = assay: Antiviral activity against Cowpox virus; assay type: functional, organism-based

Question: What does the source list for `Nc1ncnc2c1ncn2/C=C1\CC1(F)CO` (centres undefined)?
Answer: IC50 (Hepatitis B virus): 15000 nM; IC50 (Human alphaherpesvirus 3): 83400 nM

Question: How did the IC50 (Human papillomavirus) turn out when `O=C(O)CS(=O)(=O)c1ccc(-c2cccc(C(=O)N3CCOCC3)c2)cc1` was run?
Answer: Its IC50 is 22 µM.

Question: For `Cc1ccc(Sc2nc(N)nc3c2ncn3CCOCP(=O)(OCC(F)(F)F)OCC(F)(F)F)cc1`, which IC50 (Hepatitis B virus) is on record?
Answer: The IC50 was 60 nM.

Question: For `C[C@H](NC(=O)c1cccc(-c2ccc(S(=O)(=O)CC(=O)O)cc2)c1)c1ccccc1`, which IC50 (Human papillomavirus) is on record?
Answer: The IC50 was 1.7 µM.

Question: With `COc1cccc(Sc2nc(N)nc3c2ncn3CCOCP(=O)(OCC(F)(F)F)OCC(F)(F)F)c1` as the molecule, how does the IC50 (Hepatitis B virus) read?
Answer: The IC50 was 40 nM.

Question: With `O=C(O)CS(=O)(=O)c1ccc(-c2ccc(C(=O)N3CCCCC3)cc2)cc1` as the molecule, how does the IC50 (Human papillomavirus) read?
Answer: The IC50 was 3.3 µM.

Question: `Cc1cn([C@@H]2O[C@H](CO)[C@@H](O)[C@@H]2F)c(=O)[nH]c1=O` [5-METHYL-2'-FLUOROARAURACIL] was tested. Which IC50 (Hepatitis B virus) did it give?
Answer: Its IC50 is 830 nM.

Question: Which IC50 (Hepatitis B virus) does the source give for `Nc1nc(Sc2ccc(OC(F)(F)F)cc2)c2ncn(CCOCP(=O)(OCC(F)(F)F)OCC(F)(F)F)c2n1` here?
Answer: The IC50 was 60 nM.

Question: What does the source list for `Cc1cn([C@H]2C[C@H](OP(=O)(S)OC[C@H]3O[C@@H](n4cnc5c(N)ncnc54)C[C@@H]3O)[C@@H](COP(=O)(S)O[C@H]3C[C@H](n4ccc(N)nc4=O)O[C@@H]3CO)O2)c(=O)[nH]c1=O` (some centres undefined)?
Answer: IC50 (Hepatitis B virus): 2100 nM; IC50 (Hepatitis C virus): 1000 nM

Question: With `Cc1ccccc1CNC(=O)c1cccc(-c2ccc(S(=O)(=O)CC(=O)O)cc2)c1` as the molecule, how does the IC50 (Human papillomavirus) read?
Answer: Its IC50 is 0.032 µM.

Question: `Nc1nc(N)n(CCOCP(=O)(O)O)c(=O)c1-c1ccccc1` was tested. Which IC50 (Vaccinia virus) did it give?
Answer: Its IC50 is 0.0012 µM.

Question: What about the IC50 (Human alphaherpesvirus 2; Human alphaherpesvirus 2) of the same molecule?
Answer: The IC50 was 1.2 nM.

Question: And the IC50 (Human alphaherpesvirus 1; Human alphaherpesvirus 1)?
Answer: The IC50 was 1.2 nM.

Question: What about the IC50 (Human betaherpesvirus 5) of the same molecule?
Answer: The IC50 was 0.15 nM.

Question: And the IC50 (Human alphaherpesvirus 3)?
Answer: The IC50 was 0.15 nM.

Question: And the IC50 [1]?
Answer: Its IC50 is 0.3 nM.

Question: What about the IC50 [2] of the same molecule?
Answer: The IC50 was 0.3 nM.

Question: Which IC50 (Human papillomavirus) does the source give for `O=C(O)CSc1ccc(-c2ccccc2)cc1` here?
Answer: Its IC50 is 80 µM.

Question: `C=CCNc1nc(N)nc2c1ncn2CCOCP(=O)(O)O` was tested. Which IC50 (Vaccinia virus) did it give?
Answer: The IC50 was 25 µM.

Question: What about the IC50 (Cowpox virus) of the same molecule?
Answer: Its IC50 is 115 µM.

Question: What does the source list for `CCCCOC(=O)C[C@H](C)NP(=O)(COCCn1cnc2c(N)ncnc21)N[C@@H](C)C(=O)OCCCC` (some centres undefined)?
Answer: IC50 (Vaccinia virus): 4.4 µM; IC50 (Cowpox virus): 10 µM

Question: How did the IC50 (Hepatitis B virus) turn out when `COc1ccccc1Sc1nc(N)nc2c1ncn2CCOCP(=O)(OCC(F)(F)F)OCC(F)(F)F` was run?
Answer: Its IC50 is 80 nM.

Question: Which IC50 (Human papillomavirus) does the source give for `O=C(O)CS(=O)(=O)c1ccc(NCCc2ccccc2)cc1` here?
Answer: The IC50 was 67 µM.

Question: How did the IC50 (Vaccinia virus) turn out when `Nc1nc(O)cc(OCCOCP(=O)(O)O)n1` was run?
Answer: The IC50 was 0.00018 µM.

Question: And the IC50 (Human alphaherpesvirus 2)?
Answer: The IC50 was 0.033 nM.

Question: What about the IC50 (Human alphaherpesvirus 2; Human alphaherpesvirus 2) of the same molecule?
Answer: Its IC50 is 0.0362 nM.

Question: What about the IC50 (Human alphaherpesvirus 1) of the same molecule?
Answer: Its IC50 is 0.025 nM.

Question: What about the IC50 (Human alphaherpesvirus 1; Human alphaherpesvirus 1) of the same molecule?
Answer: Its IC50 is 0.0362 nM.

Question: What about the IC50 (Human betaherpesvirus 5) of the same molecule?
Answer: Its IC50 is 0.19 nM.

Question: And the IC50 [2]?
Answer: Its IC50 is 30.2 nM.

Question: For `O=C(NCc1cccc2ccccc12)c1cccc(-c2ccc(C(=O)C(F)(F)P(=O)(O)O)cc2)c1`, which IC50 (Human papillomavirus) is on record?
Answer: The IC50 was 0.74 µM.

Question: With `O=C(O)CS(=O)(=O)c1ccc(-c2ccc(C(=O)Nc3ccccc3)cc2)cc1` as the molecule, how does the IC50 (Human papillomavirus) read?
Answer: The IC50 was 1.3 µM.

Question: How did the IC50 (Vaccinia virus) turn out when `C[C@H](Cn1cnc2c(N)ncnc21)OCP(=O)(O)O` [TENOFOVIR ANHYDROUS] was run?
Answer: The IC50 was 300 µM.

Question: What about the IC50 (Cowpox virus) of the same molecule?
Answer: Its IC50 is 300 µM.

Question: And the IC50 [1]?
Answer: The IC50 was 7200 nM.

Question: What does the source list for `Cc1cn([C@H]2C=C[C@@H](CO)O2)c(=O)[nH]c1=O` [STAVUDINE]?
Answer: IC50 (Vaccinia virus): 446 µM; IC50 (Cowpox virus): 446 µM

Question: How did the IC50 (Cowpox virus) turn out when `CC(C)OC(=O)C(C)NP(=O)(COCCn1cnc2c(NC3CC3)nc(N)nc21)Oc1ccccc1` (centres undefined) was run?
Answer: Its IC50 is 2.6 µM.

Question: `Nc1ncnc2c1ncn2/C=C1/CC1(F)CO` (centres undefined) was tested. Which IC50 (Hepatitis B virus) did it give?
Answer: The IC50 was 20000 nM.

Question: And the IC50 (Human alphaherpesvirus 3)?
Answer: Its IC50 is 14000 nM.

Question: What about the IC50 [1] of the same molecule?
Answer: Its IC50 is 12000 nM.

Question: How did the IC50 (Human papillomavirus) turn out when `O=P(O)(O)CS(=O)(=O)c1ccc(-c2ccccc2)cc1` was run?
Answer: Its IC50 is 30 µM.

Question: With `O=C(O)CS(=O)(=O)c1ccc(-c2ccc(CC(=O)Nc3ccccc3)cc2)cc1` as the molecule, how does the IC50 (Human papillomavirus) read?
Answer: Its IC50 is 0.16 µM.

Question: `Nc1nc(Sc2ccccc2)c2ncn(CCOCP(=O)(OCC(F)(F)F)OCC(F)(F)F)c2n1` was tested. Which IC50 (Hepatitis B virus) did it give?
Answer: Its IC50 is 50 nM.

Question: Which IC50 (Vaccinia virus) does the source give for `O=c1[nH]cnc2c1ncn2[C@H]1CC[C@@H](CO)O1` [DIDANOSINE] here?
Answer: Its IC50 is 423 µM.

Question: And the IC50 (Cowpox virus)?
Answer: The IC50 was 423 µM.

Question: And the IC50 [1]?
Answer: The IC50 was 4000 nM.

Question: With `N#CCc1c(N)nc(N)nc1OCCOCP(=O)(O)O` as the molecule, how does the IC50 (Vaccinia virus) read?
Answer: The IC50 was 0.0012 µM.

Question: And the IC50 (Human alphaherpesvirus 2; Human alphaherpesvirus 2)?
Answer: The IC50 was 1.2 nM.

Question: What about the IC50 (Human alphaherpesvirus 1; Human alphaherpesvirus 1) of the same molecule?
Answer: Its IC50 is 1.2 nM.

Question: What about the IC50 (Human betaherpesvirus 5) of the same molecule?
Answer: Its IC50 is 0.15 nM.

Question: And the IC50 (Human alphaherpesvirus 3)?
Answer: The IC50 was 0.11 nM.

Question: What about the IC50 [1] of the same molecule?
Answer: Its IC50 is 0.3 nM.

Question: And the IC50 [2]?
Answer: The IC50 was 0.3 nM.

Question: For `CN(C)c1cc(=O)n(CCOCP(=O)(O)O)c(N)n1`, which IC50 [2] is on record?
Answer: The IC50 was 0.342 nM.

Question: `Cc1cc(OCCOCP(=O)(O)O)nc(N)n1` was tested. Which IC50 [2] did it give?
Answer: The IC50 was 0.433 nM.

Question: For `O=C(O)CS(=O)(=O)c1ccc(-c2cccc(CC(=O)NCc3ccccc3)c2)cc1`, which IC50 (Human papillomavirus) is on record?
Answer: Its IC50 is 0.3 µM.

Question: Which IC50 (Hepatitis B virus) does the source give for `Nc1nc(O)c2ncn(CCC(CO)CO)c2n1` [PENCICLOVIR] here?
Answer: The IC50 was 103000 nM.

Question: How did the IC50 (Human papillomavirus) turn out when `O=C(O)CS(=O)(=O)c1ccc(Sc2ccccc2)cc1` was run?
Answer: Its IC50 is 80 µM.

Question: How did the IC50 (Hepatitis B virus) turn out when `COc1ccccc1/C(Br)=C(\NC(=O)c1ccc([N+](=O)[O-])cc1)C(=O)N1CCCCC1` was run?
Answer: The IC50 was 2400 nM.

Question: Which IC50 (Vaccinia virus) does the source give for `Nc1nc(N)c(-c2ccccc2)c(OCCOCP(=O)(O)O)n1` here?
Answer: Its IC50 is 0.0012 µM.

Question: What about the IC50 (Human alphaherpesvirus 2; Human alphaherpesvirus 2) of the same molecule?
Answer: Its IC50 is 1.2 nM.

Question: And the IC50 (Human alphaherpesvirus 1; Human alphaherpesvirus 1)?
Answer: The IC50 was 1.2 nM.

Question: And the IC50 (Human betaherpesvirus 5)?
Answer: The IC50 was 0.15 nM.

Question: And the IC50 (Human alphaherpesvirus 3)?
Answer: Its IC50 is 0.15 nM.

Question: And the IC50 [1]?
Answer: Its IC50 is 0.3 nM.

Question: What about the IC50 [2] of the same molecule?
Answer: Its IC50 is 0.3 nM.

Question: With `O=S(=O)(Cc1nnn[nH]1)c1ccc(-c2ccccc2)cc1` as the molecule, how does the IC50 (Human papillomavirus) read?
Answer: Its IC50 is 63 µM.

Question: How did the IC50 (Cowpox virus) turn out when `COc1c(C)c2c(c(O)c1C/C=C(\C)CCC(=O)O)C(=O)OC2` [MYCOPHENOLIC ACID] was run?
Answer: The IC50 was 3.2 µM.

Question: Which IC50 (Human papillomavirus) does the source give for `O=C(O)CS(=O)(=O)c1cccc(COc2ccccc2)c1` here?
Answer: The IC50 was 80 µM.

Question: Which IC50 (Hepatitis B virus) does the source give for `CCCOc1ccc(Sc2nc(N)nc3c2ncn3CCOCP(=O)(OCC(F)(F)F)OCC(F)(F)F)cc1` here?
Answer: Its IC50 is 870 nM.
